Results reported in patent US20150254433A1, “Methods and Models for Determining Likelihood of Cancer Drug Treatment Success Utilizing Predictor Biomarkers, and Methods of Diagnosing and Treating Cancer Using the Biomarkers” (priority 2014, published 2015).

Columns and labels:
breast cancer cell lines [1] = assay: Drug response (GI50, 50% reduction in proliferation) of breast cancer cell lines in culture; type: cell-based; conditions: for range of observed drug sensitivities, in words, relative to another drug: comparison of sensitivity ranges across cell lines; for range over which the cell lines varied in sensitivity to the drug: sensitivity = negative base ten logarithm of the 50% growth inhibition concentration, difference between most and least sensitive cell lines
Text: Recently, large datasets describing the effects of various drugs on the growth of cancer cells in culture have been generated for the purpose of accelerating the preclinical evaluation of new compounds. One of largest datasets with respect to the number of drugs and breast cancer cell lines describes the effects of ninety (90) different drugs on seventy (70) different breast cancer cell lines. The dataset includes measurements of the concentration of each drug that causes a 50% reduction in the proliferation of cells in culture (i.e., GI50). […] Acquired resistance to chemotherapeutics or targeted agents is recognized and is being studied intensively. […] There appears to be a relatively large amount of intrinsic variability in the responses to drugs by these tumor-derived cell lines. These intrinsic differences in sensitivity, if replicated in breast tumors, could explain some of the variability in responses of tumors to chemotherapeutic drugs or targeted agents.
Another dataset that is statistically analyzed using lasso regression (e.g., a least absolute shrinkage and selection operator [i.e., lasso] regression model) includes responses of the cancer cell lines to various cancer treatment drugs (e.g., 5, 10, 20, 30, 40, 50 or more drugs). In one example described herein, the datasets include responses from approximately 90 drugs on 70 different breast cancer cell lines. As mentioned elsewhere herein, the drug response data are determined by measuring the concentration of drugs or compounds that causes a 50% reduction (e.g., GI50 or IC50 data) in the proliferation of the cells in culture.
Sensitivity is the negative base ten logarithm of the 50% growth inhibition concentration. In the RPPA dataset, which has the most cell lines, the HER2 overexpressing lines are clearly separated from the others. This difference was used to define HER2 overexpression (e.g., represented by open circles), and the same definition of overexpression versus normal expression is used in the other protein datasets and in other Figures herein. For the glycoprotein and MRM datasets, the base ten logarithms are given on the horizontal axes. The quantitative relationships between HER2 expression levels and drug sensitivities in FIG. 2 are shown in scatterplots, in which each point corresponds to a particular cell line. The protein datasets all include cell lines that overexpress HER2. These cell lines are generally clustered on the right sides of the plots as separate groups.

breast cancer cell lines [2] = conditions: FIG. 2; HER2 over-expressing versus other breast cancer cell lines; cited from earlier work

O=c1[nH]c2ccccc2n1C1CCN(Cc2ccc(-c3nc4cc5[nH]cnc5cc4nc3-c3ccccc3)cc2)CC1 [Sigma AKT1,2 inhibitor]
range of observed drug sensitivities, in words, relative to another drug (breast cancer cell lines [1]): significantly lower

CC(=O)O[C@@]12CO[C@@H]1C[C@H](O)[C@@]1(C)C(=O)[C@H](O)C3=C(C)[C@@H](OC(=O)[C@H](O)[C@@H](NC(=O)OC(C)(C)C)c4ccccc4)C[C@@](O)([C@@H](OC(=O)c4ccccc4)[C@H]21)C3(C)C [docetaxel]
range of observed drug sensitivities, in words, relative to another drug (breast cancer cell lines [1]): much smaller range than the sensitivity of the cell lines to rapamycin

CO[C@H]1C[C@@H]2CC[C@@H](C)[C@@](O)(O2)C(=O)C(=O)N2CCCC[C@H]2C(=O)O[C@H]([C@H](C)C[C@@H]2CC[C@@H](OCCO)[C@H](OC)C2)CC(=O)[C@H](C)/C=C(\C)[C@@H](O)[C@@H](OC)C(=O)[C@H](C)C[C@H](C)/C=C/C=C/C=C/1C [everolimus]
range over which the cell lines varied in sensitivity to the drug (breast cancer cell lines [1]): 3.3 orders of magnitude

Nc1ccn([C@@H]2O[C@H](CO)[C@@H](O)C2(F)F)c(=O)n1 [gemcitabine]
range over which the cell lines varied in sensitivity to the drug (breast cancer cell lines [1]): approximately four

CS(=O)(=O)CCNCc1ccc(-c2ccc3ncnc(Nc4ccc(OCc5cccc(F)c5)c(Cl)c4)c3c2)o1 [lapatinib]
drug sensitivity of HER2 over-expressing cell lines (breast cancer cell lines [2]): comparatively high drug sensitivity

CC(=O)O[C@H]1C(=O)[C@@]2(C)[C@H]([C@H](OC(=O)c3ccccc3)[C@]3(O)C[C@H](OC(=O)[C@H](O)[C@@H](NC(=O)c4ccccc4)c4ccccc4)C(C)=C1C3(C)C)[C@]1(OC(C)=O)CO[C@@H]1C[C@@H]2O [paclitaxel]
range of observed drug sensitivities, in words, relative to another drug (breast cancer cell lines [1]): much smaller range than the sensitivity of the cell lines to rapamycin

CO[C@H]1C[C@@H]2CC[C@@H](C)[C@@](O)(O2)C(=O)C(=O)N2CCCC[C@H]2C(=O)O[C@H]([C@H](C)C[C@@H]2CC[C@@H](O)[C@H](OC)C2)CC(=O)[C@H](C)/C=C(\C)[C@@H](O)[C@@H](OC)C(=O)[C@H](C)C[C@H](C)/C=C/C=C/C=C/1C [rapamycin]
range over which the cell lines varied in sensitivity to the drug (breast cancer cell lines [1]): 4.6 orders of magnitude

CO[C@H]1C[C@@H]2CC[C@@H](C)[C@@](O)(O2)C(=O)C(=O)N2CCCC[C@H]2C(=O)O[C@H]([C@H](C)C[C@@H]2CC[C@@H](OC(=O)C(C)(CO)CO)[C@H](OC)C2)CC(=O)[C@H](C)/C=C(\C)[C@@H](O)[C@@H](OC)C(=O)[C@H](C)C[C@H](C)/C=C/C=C/C=C/1C [temsirolimus]
range over which the cell lines varied in sensitivity to the drug (breast cancer cell lines [1]): 3.7 orders of magnitude

CCC1=C[C@@H]2CN(C1)Cc1c([nH]c3ccccc13)[C@@](C(=O)OC)(c1cc3c(cc1OC)N(C)[C@H]1[C@@](O)(C(=O)OC)[C@H](OC(C)=O)[C@]4(CC)C=CCN5CC[C@]31[C@@H]54)C2 [vinorelbine]
range over which the cell lines varied in sensitivity to the drug (breast cancer cell lines [1]): approximately four
